Laboratory results published in US11098040B2, “Compounds and methods of use” (Ferro Therapeutics, Inc., priority 2018, dated 2021).

What was measured:
[1] = Whole blood stability, human; assay type: in vitro ADME
Description: (§1) The results of the assay on stability in blood and IC50 values for pancreatic cancer cell line KP4 are given below in Table 24.

[2] = Whole blood stability, mouse; assay type: in vitro ADME
Description: as §1

[3] = system: KP4; assay: Cell viability assay (CellTiter Glo), pancreatic ductal adenocarcinoma KP4; assay type: cell-based, human; settings: Homo sapiens, KP-4, 96 h, pancreatic cancer cell line KP4, 96 hours, CellTiter Glo; read-out: IC50 μM KP4
Procedure, shortened: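 KP4 cells seeded at 1,000–10,000 per well, treated 96 h with 9-point 3-fold dilutions from 30 μM top (4.6 nM–30 μM, duplicates; ≤0.25% DMSO). Viability by CellTiter Glo luminescence; % inhibition relative to DMSO-only wells, giving IC50, relative IC50 or % top inhibition.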

| Structure (SMILES) | Whole Blood Stability % Remaining at 37° C. Human ([1]; 0 min) | Whole Blood Stability % Remaining at 37° C. Human ([1]; 30 min) | Whole Blood Stability % Remaining at 37° C. Human ([1]; 60 min) | Whole Blood Stability % Remaining at 37° C. Mouse ([2]; 0 min) | Whole Blood Stability % Remaining at 37° C. Mouse ([2]; 30 min) | Whole Blood Stability % Remaining at 37° C. Mouse ([2]; 60 min) | IC50 [3] |
| --- | --- | --- | --- | --- | --- | --- | --- |
| COC(=O)c1ccc([C@H]2c3[nH]c4ccccc4c3C[C@H](C(=O)OC(C)(C)C)N2C(=O)CCl)cc1 [Compound 2] | 100.0% | 58.5% | 39.4% | 100.0% | 0.1% | 0.1% | 0.01 to 0.1 µM |
| COC(=O)[C@H]1Cc2c([nH]c3ccccc23)[C@H](c2ccc(C(=O)NC(C(=O)O)C(C)(C)C)cc2)N1C(=O)CCl (single isomer, unassigned) [Compound 10] | 100.0% | 84.0% | 54.3% | 100.0% | 82.2% | 65.0% | 0.5 to 1 µM |
| CNS(=O)(=O)c1ccc([C@H]2c3[nH]c4ccccc4c3C[C@H](C(=O)OC)N2C(=O)CCl)cc1 [Compound 22] | 100.0% | 58.8% | 24.9% | 100.0% | 47.4% | 27.6% | < 0.01 µM |
| CC(C)(C)OC(=O)[C@H]1Cc2c([nH]c3ccccc23)[C@H](c2ccc([N+](=O)[O-])cc2)N1C(=O)CCl [Compound 11] | 100.0% | 67.1% | 59.9% | 100.0% | 56.9% | 38.6% | 0.01 to 0.1 µM |

Second part, the molecule after the results:

| Whole Blood Stability % Remaining at 37° C. Human ([1]; 0 min) | Whole Blood Stability % Remaining at 37° C. Human ([1]; 30 min) | Whole Blood Stability % Remaining at 37° C. Human ([1]; 60 min) | Whole Blood Stability % Remaining at 37° C. Mouse ([2]; 0 min) | Whole Blood Stability % Remaining at 37° C. Mouse ([2]; 30 min) | Whole Blood Stability % Remaining at 37° C. Mouse ([2]; 60 min) | IC50 [3] | Structure (SMILES) |
| --- | --- | --- | --- | --- | --- | --- | --- |
| 100.0% | 73.4% | 51.6% | 100.0% | 78.3% | 68.9% | < 0.01 µM | COC(=O)[C@H]1Cc2c([nH]c3ccccc23)[C@H](c2ccc(C(=O)N[C@]34CC5C[C@H](C[C@H](C5)C3)C4)cc2)N1C(=O)CCl [Compound 28, Methyl-(1S,3R)-1-(4-(((3R,5R,7R)-adamantan-1-yl)carbamoyl)phenyl)-2-(2-chloroacetyl)-2,3,4,9-tetrahydro-1H-pyrido[3,4-b]indole-3-carboxylate] |
| 100.0% | 39.3% | 20.5% | 100.0% | 32.9% | 14.8% | 0.01 to 0.1 µM | COC(=O)[C@H]1Cc2c([nH]c3ccccc23)[C@H](c2ccc(S(=O)(=O)N3CCC(O)CC3)cc2)N1C(=O)CCl [Compound 35] |
| 100.0% | 113.1% | 70.7% | 100.0% | 97.0% | 108.4% | 0.01 to 0.1 µM | COC[C@H]1Cc2c([nH]c3ccccc23)[C@H](c2ccc(C(=O)OC(C)(C)C)cc2)N1C(=O)CCl [Compound 63] |
| 100.0% | 46.2% | 28.5% | 100.0% | 72.9% | 62.0% | 0.5 to 1 µM | CN(C)C(=O)c1ccc([C@H]2c3[nH]c4ccccc4c3C[C@H](C(=O)N(C)C)N2C(=O)CCl)cc1 [Compound 38] |
